What was measured:
Format in all cases: cell-based
[1] = tested on: SK-Mel-28 melanoma cells; assay: Anti-proliferative assay (cell-titre luminescent), SK-Mel-28; conditions: Homo sapiens; SK-Mel-28, 72 hours, luminescence
Method: (§1) The ability of compounds 2002, 2009 and 2013-2064 to inhibit the proliferation of cancer cells representative of neuroblastoma, melanoma, prostate cancer, colorectal cancer, non-small cell lung carcinoma, and triple negative breast cancer was assessed. These studies were conducted by contract research (GVK-BIO). Briefly, a pre-determined number of cells as calculated from cell growth assays for each of the cell lines employed were seeded into their respective culture medium (using ATCC culture parameters—http://www.atcc.org) and cultured for 24 h at 37° C. and 5% CO2 in 96-well culture plates. Once attached, each cell line was then exposed to various concentrations of each respective analogue (30, 10, 3, 1, 0.3 and 0.1 μM), cultured for a further 72 hours and exposed to cell-titre luminescent reagent (100 μL/well) for a further 30 minutes). Luminescence was captured using an EnVision multilabel reader and the data for each analogue concentration compared against no treatment control. Cell viability was normalized to control (vehicle alone) and dose-response curves, and half maximal effective concentration (EC50) values were determined using Graph Pad Prism 6 (nonlinear regression sigmoidal dose-response variable slope).

[2] = tested on: DU145 prostate cancer cells; assay: Anti-proliferative assay (cell-titre luminescent), DU145; conditions: Homo sapiens, DU-145; DU145, 72 hours, luminescence
Method: as §1

[3] = tested on: A549 lung (NSLC) cells; assay: Anti-proliferative assay (cell-titre luminescent), A549; conditions: Homo sapiens; A549, 72 hours, luminescence
Method: as §1

[4] = tested on: SK-N-SH neuroblastoma cells; assay: Anti-proliferative assay (cell-titre luminescent), SK-N-SH; conditions: Homo sapiens, 72 hours, luminescence
Method: as §1

[5] = tested on: PC3 prostate cancer cells; assay: Anti-proliferative assay (cell-titre luminescent), PC3; conditions: PC3, 72 hours, luminescence
Method: as §1

[6] = tested on: CaCo2 colorectal cancer cells; assay: Anti-proliferative assay (cell-titre luminescent), CaCo2; conditions: Homo sapiens, Caco-2; CaCo2, 72 hours, luminescence
Method: as §1

[7] = tested on: MDA-MB-231 breast cancer cells; assay: Anti-proliferative assay (cell-titre luminescent), MDA-MB-231; conditions: Homo sapiens; MDA-MB-231, 72 hours, luminescence
Method: as §1

Compound: COc1ccc2c(c1)c(/C=C/C(=O)N1CCN(CCc3cccc(F)c3)CC1)c(C)n2CCCN1CCN(C)CC1 [Compound 2032, (E)-1-(4-(3-fluorophenethyl)piperazin-1-yl)-3-(5-methoxy-2-methyl-1-(3-(4-methylpiperazin-1-yl)propyl)-1H-indol-3-yl)prop-2-en-1-one]
- IC50 [1]: 4.3 µM
- IC50 [2]: 7.7 µM
- IC50 [3]: 9 µM
- IC50 [4]: 4.7 µM
- IC50 [5]: 6.8 µM
- IC50 [6]: 5.6 µM
- IC50 [7]: 4.9 µM

Compound: COc1cccc(CCN2CCN(C(=O)/C=C/c3c(C)n(CCCN4CCN(C)CC4)c4ccc(OC)cc34)CC2)c1 [Compound 2033, (E)-3-(5-methoxy-2-methyl-1-(3-(4-methylpiperazin-1-yl)propyl)-1H-indol-3-yl)-1-(4-(3-methoxyphenethyl)piperazin-1-yl)prop-2-en-1-one]
- IC50 [1]: 4.2 µM
- IC50 [2]: 18.6 µM
- IC50 [3]: 10.8 µM
- IC50 [4]: 3.3 µM
- IC50 [5]: 6.8 µM
- IC50 [6]: 4.2 µM
- IC50 [7]: 4.5 µM

Compound: COc1ccc2c(c1)c(/C=C/C(=O)N1CCN(CCc3ccccc3)CC1)c(C)n2CCCN1CCN(C)CC1 [Compound 2034, (E)-3-(5-methoxy-2-methyl-1-(3-(4-methylpiperazin-1-yl)propyl)-1H-indol-3-yl)-1-(4-phenethylpiperazin-1-yl)prop-2-en-1-one]
- IC50 [1]: 16.2 µM
- IC50 [2]: 17.2 µM
- IC50 [3]: 51.3 µM
- IC50 [4]: 10.8 µM
- IC50 [5]: 11.5 µM
- IC50 [6]: 8.1 µM
- IC50 [7]: 13.7 µM

Compound: CCOc1ccc2c(c1)c(/C=C/C(=O)N1CCN(CCc3ccc(F)cc3)CC1)c(C)n2CCCN(C)C [Compound 2035, (E)-3-(1-(3-(dimethylamino)propyl)-5-ethoxy-2-methyl-1H-indol-3-yl)-1-(4-(4-fluorophenethyl)piperazin-1-yl)prop-2-en-1-one]
- IC50 [1]: 3.2 µM
- IC50 [2]: 6.2 µM
- IC50 [3]: 8.3 µM
- IC50 [4]: 3.3 µM
- IC50 [5]: 5.6 µM
- IC50 [6]: 5.1 µM
- IC50 [7]: 3 µM

Compound: CCOc1ccc2c(c1)c(/C=C/C(=O)N1CCN(CCc3ccc(F)cc3)CC1)c(C)n2CCCN(CC)CC [Compound 2036, (E)-3-(1-(3-(diethylamino)propyl)-5-ethoxy-2-methyl-1H-indol-3-yl)-1-(4-(4-fluorophenethyl)piperazin-1-yl)prop-2-en-1-one]
- IC50 [1]: 3.2 µM
- IC50 [2]: 4.7 µM
- IC50 [3]: 4.3 µM
- IC50 [4]: 1.5 µM
- IC50 [5]: 4.9 µM
- IC50 [6]: 5.1 µM
- IC50 [7]: 4.4 µM

Compound: CCOc1ccc2c(c1)c(/C=C/C(=O)N1CCN(CCc3ccc(F)cc3)CC1)c(C)n2CCCN1CCN(C)CC1 [Compound 2037, (E)-3-(5-ethoxy-2-methyl-1-(3-(4-methylpiperazin-1-yl)propyl)-1H-indol-3-yl)-1-(4-(4-fluorophenethyl)piperazin-1-yl)prop-2-en-1-one]
- IC50 [1]: 2.7 µM
- IC50 [2]: 5 µM
- IC50 [3]: 6.6 µM
- IC50 [4]: 3.1 µM
- IC50 [5]: 8.7 µM
- IC50 [6]: 4.8 µM
- IC50 [7]: 5 µM

Compound: Cc1c(C(=O)N2CCN(CCc3ccc(F)cc3)CC2)c2ccccc2n1CCCN(C)C [Compound 2038, (1-(3-(dimethylamino)propyl)-2-methyl-1H-indol-3-yl)(4-(4-fluorophenethyl)piperazin-1-yl)methanone]
- IC50 [1]: > 30 µM
- IC50 [2]: > 30 µM
- IC50 [3]: > 30 µM
- IC50 [4]: > 30 µM
- IC50 [5]: > 30 µM
- IC50 [6]: > 30 µM
- IC50 [7]: > 30 µM

Compound: COc1ccc(CCN2CCN(C(=O)c3c(C)n(CCCN(C)C)c4ccccc34)CC2)cc1 [Compound 2039, (1-(3-(dimethylamino)propyl)-2-methyl-1H-indol-3-yl)(4-(4-methoxyphenethyl)piperazin-1-yl)methanone]
- IC50 [1]: 11 µM
- IC50 [2]: 72.6 µM
- IC50 [3]: 44 µM
- IC50 [4]: 12.6 µM
- IC50 [5]: 7.6 µM
- IC50 [6]: 4.8 µM
- IC50 [7]: 16.6 µM

Compound: Cc1c(C(=O)N2CCN(CCc3ccc4c(c3)OCO4)CC2)c2ccccc2n1CCCN(C)C [Compound 2040, (4-(2-(benzo[d][1,3]dioxol-5-yl)ethyl)piperazin-1-yl)(1-(3-(dimethylamino)propyl)-2-methyl-1H-indol-3-yl)methanone]
- IC50 [1]: 16.4 µM
- IC50 [2]: > 30 µM
- IC50 [3]: > 30 µM
- IC50 [4]: 26.4 µM
- IC50 [5]: > 30 µM
- IC50 [6]: > 30 µM
- IC50 [7]: > 30 µM

Compound: Cc1c(C(=O)N2CCN(CCc3cccc(F)c3)CC2)c2ccccc2n1CCCN(C)C [Compound 2041]
- IC50 [1]: 17.1 µM
- IC50 [2]: > 30 µM
- IC50 [3]: > 30 µM
- IC50 [4]: 13.2 µM
- IC50 [5]: > 30 µM
- IC50 [6]: > 30 µM
- IC50 [7]: > 30 µM

Compound: COc1cccc(CCN2CCN(C(=O)c3c(C)n(CCCN(C)C)c4ccccc34)CC2)c1 [Compound 2042, (1-(3-(dimethylamino)propyl)-2-methyl-1H-indol-3-yl)(4-(3-methoxyphenethyl)piperazin-1-yl)methanone]
- IC50 [1]: > 30 µM
- IC50 [2]: > 30 µM
- IC50 [3]: > 30 µM
- IC50 [4]: > 30 µM
- IC50 [5]: > 30 µM
- IC50 [6]: > 30 µM
- IC50 [7]: > 30 µM

Compound: Cc1c(C(=O)N2CCN(CCc3ccccc3)CC2)c2ccccc2n1CCCN(C)C [Compound 2043, (1-(3-(dimethylamino)propyl)-2-methyl-1H-indol-3-yl)(4-phenethylpiperazin-1-yl)methanone]
- IC50 [1]: 17.2 µM
- IC50 [2]: > 30 µM
- IC50 [3]: > 30 µM
- IC50 [4]: 17.4 µM
- IC50 [5]: > 30 µM
- IC50 [6]: > 30 µM
- IC50 [7]: > 30 µM

Compound: COc1ccc2c(c1)c(C(=O)N1CCN(CCc3ccc(F)cc3)CC1)c(C)n2CCCN(C)C [Compound 2044, (1-(3-(dimethylamino)propyl)-5-methoxy-2-methyl-1H-indol-3-yl)(4-(4-fluorophenethyl)piperazin-1-yl)methanone]
- IC50 [1]: 6.6 µM
- IC50 [2]: 10.1 µM
- IC50 [3]: 12.2 µM
- IC50 [4]: 6.6 µM
- IC50 [5]: 11 µM
- IC50 [6]: 11.9 µM
- IC50 [7]: 20.4 µM

Compound: COc1ccc(CCN2CCN(C(=O)c3c(C)n(CCCN(C)C)c4ccc(OC)cc34)CC2)cc1 [Compound 2045, (1-(3-(dimethylamino)propyl)-5-methoxy-2-methyl-1H-indol-3-yl)(4-(4-methoxyphenethyl)piperazin-1-yl)methanone]
- IC50 [1]: > 30 µM
- IC50 [2]: > 30 µM
- IC50 [3]: > 30 µM
- IC50 [4]: > 30 µM
- IC50 [5]: > 30 µM
- IC50 [6]: > 30 µM
- IC50 [7]: > 30 µM

Compound: COc1ccc2c(c1)c(C(=O)N1CCN(CCc3ccc4c(c3)OCO4)CC1)c(C)n2CCCN(C)C [Compound 2046, (4-(2-(benzo[d][1,3]dioxol-5-yl)ethyl)piperazin-1-yl)(1-(3-(dimethylamino)propyl)-5-methoxy-2-methyl-1H-indol-3-yl)methanone]
- IC50 [1]: 4.4 µM
- IC50 [2]: 13.3 µM
- IC50 [3]: 14.4 µM
- IC50 [4]: 7.9 µM
- IC50 [5]: 20.3 µM
- IC50 [6]: 8 µM
- IC50 [7]: 11.3 µM

Compound: COc1ccc2c(c1)c(C(=O)N1CCN(CCc3cccc(F)c3)CC1)c(C)n2CCCN(C)C [Compound 2047, (1-(3-(dimethylamino)propyl)-5-methoxy-2-methyl-1H-indol-3-yl)(4-(3-fluorophenethyl)piperazin-1-yl)methanone]
- IC50 [1]: 13.5 µM
- IC50 [2]: 13.6 µM
- IC50 [3]: 14.3 µM
- IC50 [4]: 10.9 µM
- IC50 [5]: 14.9 µM
- IC50 [6]: 8.8 µM
- IC50 [7]: 12 µM

Compound: COc1cccc(CCN2CCN(C(=O)c3c(C)n(CCCN(C)C)c4ccc(OC)cc34)CC2)c1 [Compound 2048, (1-(3-(dimethylamino)propyl)-5-methoxy-2-methyl-1H-indol-3-yl)(4-(3-methoxyphenethyl)piperazin-1-yl)methanone]
- IC50 [1]: > 30 µM
- IC50 [2]: > 30 µM
- IC50 [3]: > 30 µM
- IC50 [4]: > 30 µM
- IC50 [5]: > 30 µM
- IC50 [6]: > 30 µM
- IC50 [7]: > 30 µM

Compound: COc1ccc2c(c1)c(C(=O)N1CCN(CCc3ccccc3)CC1)c(C)n2CCCN(C)C [Compound 2049, (1-(3-(dimethylamino)propyl)-5-methoxy-2-methyl-1H-indol-3-yl)(4-phenethylpiperazin-1-yl)methanone]
- IC50 [1]: 8.7 µM
- IC50 [2]: > 30 µM
- IC50 [3]: > 30 µM
- IC50 [4]: 8.9 µM
- IC50 [5]: 8.6 µM
- IC50 [6]: > 30 µM
- IC50 [7]: 7.5 µM

Compound: CCN(CC)CCCn1c(C)c(C(=O)N2CCN(CCc3ccc(F)cc3)CC2)c2cc(OC)ccc21 [Compound 2050, (1-(3-(diethylamino)propyl)-5-methoxy-2-methyl-1H-indol-3-yl)(4-(4-fluorophenethyl)piperazin-1-yl)methanone]
- IC50 [1]: 5.3 µM
- IC50 [2]: 15.9 µM
- IC50 [3]: 19.8 µM
- IC50 [4]: 21.4 µM
- IC50 [5]: 26.4 µM
- IC50 [6]: 10.4 µM
- IC50 [7]: 14 µM

— patent publication US20170157135A1 (Novogen Limited, priority 2013, published 2017)
